Values belong to the molecule of their own block, whether it stands above or below them.
Key:
[1] = tested on: human patient with sinus tachycardia; assay: Case report: heart rate (ECG) of a human patient with sinus tachycardia and systemic lupus erythematosus
From the text: The heart rate of a mammal is defined as the number of heart beats per unit of time, usually heart beats per minute (bpm). The heart rate or number of heart beats per unit of time can be determined using methods known in the art. Such a method may involve the simple measurement of a mammal's pulse. Alternatively, heart rate may be measured through the use of an electrocardiograph (ECG), which is readily available to those skilled in the art. Such a method involves counting the number of QRS complexes in the ECG.
The patient was a person with no previous history of cardiac related disease.
Furthermore, the glyceryl trinitrate spray was used whenever angina symptoms were experienced.
In June 2009, the patient was diagnosed with systemic lupus erythematosus.
On Aug. […] On Aug. […] On Sep.

[2] = tested on: If current; assay: If current recordings, perforated patch voltage clamp in single isolated sinoatrial node cells; assay type: cell-based, guinea pig; conditions: for reduction in If current: 1 μM, 5 min exposure, n=7
[3] = tested on: isolated guinea-pig sino-atrial node cells; assay: Action potential recordings, current clamp in single isolated sino-atrial node cells; assay type: cell-based; conditions: 1 μM
Procedure: Male guinea pigs (350-500 g) were sacrificed by concussion followed by cervical dislocation. The heart was rapidly excised and encouraged to beat several times in heparin-containing zero-Ca ^2+ modified Tyrode solution to prevent clotting (10 U/mL). The heart was mounted via the aorta on a constant pressure Langendorff system for retrograde perfusion, with solutions maintained at body temperature. After 2 minutes initial wash with zero Ca ^2+ solution (in mM: NaCl 136, KCI 5.4, NaHCO3 12, Na^+ pyruvate 1, NaH2PO4 1, MgCl2 1, EGTA 0.04, glucose 5; gassed with 95% O2/5% CO2 to maintain a pH of 7.4), perfusion was switched to re-circulation with collagenase solution (same as zero Ca^2+ but with 27 mg collagenase/50 mL—type II Worthington, Worthington Biochemical Corp., Lakewood, N.J., USA—0.1 mM CaCl2 and no EGTA).
Following 25 minutes enzymatic digestion, the right atrium, vena-cavae and pulmonary artery were dissected away from the ventricles. The right atrium was pinned in a Sylgard-coated bath, opened by anterior incision, and the SA node identified from anatomical features and tissue appearance. Under a binocular microscope, the SA node appears as a translucent, smooth, white structure in contrast to the thicker, pinker surrounding atrial tissue. The SA node was dissected into thin strips 2×5 mm) and stored in a high potassium medium (in mM: KCI 70, MgCl2 5, K^+ glutamine 5, taurine 20, EGTA 0.04, succinic acid 5, KH2PO4 20, HEPES 5, glucose 10; pH to 7.2 with KOH). Isolation of single SA node myocytes was carried out by gentle trituration.
For all single cell experiments, cells were transferred to a glass coverslip and superfused with oxygenated PSS at 34 ±1° C. using a gravity-fed system running at 2-3 mL/min. HCQ was applied via superfusion, with an electronic switching mechanism resulting in full solution exchange over a period of less than 20 seconds.
Perforated patch clamp recordings were carried out using electrodes pulled from filamented borosilicate glass capillary tubing (GC100 F, Harvard Apparatus Ltd, Kent) using a two-stage vertical puller (Narishige, Japan). […]
Micropipettes were mounted in a Perspex holder containing an Ag/AgCl wire and connected to a CV203BU headstage. All recordings were carried out using an AxoPatch 200B microelectrode system, digitised with a Digidata 1200 A-D converter, and recorded using PCIamp7 software at a sampling rate of 2 kHz (All products in this paragraph, Axon Instruments). […]
Action potentials were recorded from single guinea pig SA node cells under current clamp conditions using the AxoPatch200B microelectrode system and rate measured in Hz using spectral analysis. […]

[4] = tested on: mouse atrial tissue preparations with intact sino-atrial node; assay: Spontaneous beating rate of isolated mouse atrial preparations (tension transducer); assay type: cell-based; conditions: for reduction in beating rate from control: n=7 (Example 5); for decrease in spontaneous frequency: 30 minute exposure, n=6 (Example 3)
From the text: (§1) Male CD-1 mice (7-9 weeks of age) were terminated by concussion followed by dislocation. The chest cavity was opened and heparinised solution (10 U/mL) applied around the heart to minimise clotting during dissection. The heart was rapidly excised and placed in warm, oxygenated modified Tyrode solution (PSS, in mM: NaCl 125, NaHCO3 25, KCl 5.4, NaH2PO4 1.2, MgCl2 1, glucose 5.5, CaCl2 1.8, pH to 7.4 with NaOH and oxygenated with 95% O2/5% CO2), the ventricular tissue discarded and the sino-atrial node region cleared of any overlying tissue.
Loops of thin suture were tied to the lateral edges of each atrium by directly knotting around a small area of the tissue, taking care to avoid contact with the node itself. One loop was anchored to a hook, which also provided oxygenation to the organ bath, and the other tied to a tension transducer. The preparation was hung in an organ bath filled with PSS, maintained at 37° C. Tension data was digitised using a PowerLabs bridge amplifier and recorded on Chart5 software (all from ADlnstruments, UK). Beating rate was calculated in real-time from the upstroke of the tension signal using the Chart5 Ratemeter function.
Spontaneously-beating atrial preparations were allowed to stabilise for 20 minutes, solution was exchanged for fresh, warmed, PSS and the preparation was again allowed to stabilise for 30 minutes. Drugs were added directly to the organ bath by pipette and allowed to equilibrate for 30 minutes before rate data was sampled.
Male CD-1 mice (7-9 weeks of age) were terminated by concussion followed by dislocation.
as §1, with “The” for “Male CD-1 mice (7-9 weeks of age) were terminated by concussion followed by dislocation. The”

[5] = tested on: male Sprague-Dawley rats; assay: Rat in-vivo blood pressure and heart rate study (anaesthetised, carotid cannula)
Procedure: Data was acquired (200 Hz) in real time using a Biopac M100 system connected to a Dell P4 computer using AcqKnowledge software. Heart rate was triggered from the arterial blood pressure signal. Intravenous access was gained via the left external jugular vein using a 3 F cannula. After an equilibration period of at least 10 minutes, hydoxychloroquine (dissolved in sterile normal saline for injection and warmed to body temperature) was given as intravenous boluses over 30 seconds (1-30 mg/kg). […] Once a stable response had been reached, measurements were taken as an average over 30 seconds. On completion of the protocol, animals were euthanised with intraperitoneal injection of pentobarbitone. […] Data was acquired (200 Hz) in real time using a Biopac M100 system connected to a Dell P4 computer using AcqKnowledge software. Heart rate was triggered from the arterial blood pressure signal. Intravenous access was gained via the left external jugular vein using a 3 F cannula. After an equilibration period of at least 10 minutes, hydoxychloroquine (dissolved in sterile normal saline for injection and warmed to body temperature) was given as intravenous boluses over 30 seconds (1-30 mg/kg). […] Once a stable response had been reached, measurements were taken as an average over 30 seconds. On completion of the protocol, animals were euthanised with intraperitoneal injection of pentobarbitone.

[6] = tested on: C57BL/6 mice; design: species or system mouse; conditions: in vivo
From the text: Automated non-invasive tail cuff plethysmography (Visitech 2000, Visitech, USA) was used to determine systolic blood pressure in response to HCQ in drinking water when compared to a control group (n=9/group). C57BL/6 mice were habituated for 5 days and then underwent measurements alternate day for 28 days. All measurements were taken in the morning at the same time of day. Twenty measurements were taken, the first 10 discarded and an average of valid recordings then taken for analysis.
We assessed safety by performing long term feeding of mice at 100 mg/kg daily for 28 days with HCQ (FIG. 9) and measuring blood pressure by tail cuff plethysmography.

[7] = 3 μM, 5 mins superfusion, n=4 cells

SMILES: CC(C)NCC(O)COc1ccc(CC(N)=O)cc1 (centres unmarked) [atenolol]
side effects experienced ([1]; patient on atenolol): tiredness associated with the onset of use of atenolol, low blood pressure and increased effects of Raynaud's syndrome | heart rate ([1]; patient treated with atenolol and a glyceryl trinitrate spray, about 118 bpm at rest before): 70-80 bpm

start weight ([6]; mouse): 27.72 ± 0.36 g
SMILES: CCN(CCO)CCCC(C)Nc1ccnc2cc(Cl)ccc12 (centres unmarked) [hydroxychloroquine, 2-[{4-[(7-chloroquinolin-4-yl)amino]pentyl}(ethyl)amino]ethanol]
heart rate ([1]; 200 mg daily resumed Aug. 4, 2010, measured Sep. 16, 2010): 80-88 bpm | stable heart rate ([1]; 200 mg daily, August 2010 until December 2010): 70-85 bpm | heart rate ([1]; 200 mg to 400 mg Plaquenil per day, Atenolol completely ceased): 70-80 bpm | recorded heart rate ([1]; dose halved to 100 mg per day, ECG Aug. 3, 2010): 109 bpm | reduction in If current ([2]; −80 mV voltage step): 20+/−4% | reduction in If current ([2]; −100 mV step): 12+/−4% | maximal conductance of I(f) [2, 7]: 85±6 % of control | voltage of half-activation (V50) and slope of conductance [2, 7]: unchanged | reduction in cellular beating rate (action potential firing rate) ([3]; 3 mins of exposure, n=6): 10±3% | lengthening in the time taken to reach 50% repolarisation ([3]; 5 min superfusion): 11+/-3% | reduction in the slope of spontaneous diastolic depolarization ([3]; 5 min superfusion): 25+/−3% | reduction in rate of spontaneous action potential generation (cellular beating rate) ([3]; 5 min superfusion, n=6, listed as HCQ): 17±6% | reduction in beating rate from control ([4]; 3 μM cumulative dose): 9±3% | decrease in spontaneous frequency ([4]; 3 μM): 11% | reduction in beating rate from control ([4]; 10 μM cumulative dose): 15±2% | decrease in spontaneous frequency ([4]; 10 μM): 20% | cumulative dose at which a significant transient reduction in heart rate is observed ([5]; cumulative intravenous doses): ≥ 7.5 mg/kg | effect on blood pressure at low doses ([5]; low intravenous doses (1-15 mg), n=6): without an effect on blood pressure | effect on blood pressure at very high doses ([5]; very high intravenous doses): an effect on blood pressure (which recovers over time) | systolic blood pressure, baseline ([6]; C57BL/6, mouse): 109.7±2.89 mmHg

From patent US20160151347A1, “PHARMACEUTICAL COMPOUNDS” (ISIS Innovation LTD, priority 2013, published 2016)
